The values below come from BindingDB's records for doi:10.1111/cbdd.12489 (Zhejiang University, 2015).

The target in the test is RAC-alpha serine/threonine-protein kinase (Homo sapiens, UniProt P31749). Description: Akt1 Inhibitory Activity Assay. The conditions noted are these: pH 7.5; 25 °C. The procedure:
In vitro kinase assays were carried out using HTScan PKB/Akt1 Kinase Assay kit (Cell Signaling Technology). […] Then, PKB/Akt1 kinase activity was analyzed according to the manufacturer's instructions.

Sequence of RAC-alpha serine/threonine-protein kinase (P31749 whole entry): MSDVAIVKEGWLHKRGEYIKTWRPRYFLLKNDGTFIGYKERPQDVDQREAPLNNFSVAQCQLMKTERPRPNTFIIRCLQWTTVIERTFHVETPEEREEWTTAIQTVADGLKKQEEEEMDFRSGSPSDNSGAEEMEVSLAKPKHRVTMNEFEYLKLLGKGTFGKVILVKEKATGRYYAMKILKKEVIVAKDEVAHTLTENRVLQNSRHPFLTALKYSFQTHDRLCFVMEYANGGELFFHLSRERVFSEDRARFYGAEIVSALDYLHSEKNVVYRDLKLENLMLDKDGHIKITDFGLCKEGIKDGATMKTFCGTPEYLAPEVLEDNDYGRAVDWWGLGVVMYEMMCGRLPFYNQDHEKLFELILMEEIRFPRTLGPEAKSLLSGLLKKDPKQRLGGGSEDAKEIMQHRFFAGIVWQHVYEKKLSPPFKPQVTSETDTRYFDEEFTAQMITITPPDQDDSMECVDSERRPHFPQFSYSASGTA

For `O=c1c(O)c(-c2ccc(O)c(O)c2)oc2cc(O)c(CN3CCOCC3)c(O)c12` [2-(3,4-Dihydroxyphenyl)-3,5,7-trihydroxy-6-(morpholinomethyl)-4H-chromen-4-one (3a)], the half-maximal inhibitory concentration (IC50) (as a rule, the concentration needed to halve the response being measured) worked out at 6.2 µM. The same measure for `CN(Cc1ccccc1)Cc1c(O)cc2oc(-c3ccc(O)c(O)c3)c(O)c(=O)c2c1O` [6-((Benzyl(methyl)amino)methyl)-2-(3,4-dihydroxyphenyl)-3,5,7-trihydroxy-4H-chromen-4-one (3c)]: 5.5 µM.
